Experimental data as given in patent US20250197414A1, “SALT FORM AND CRYSTAL FORM OF VANIN ENZYME INHIBITOR, METHOD FOR PREPARING SAME, AND USE THEREOF” (SHANGHAI MEIYUE BIOTECH DEVELOPMENT CO., LTD., priority 2022, published 2025).
Read-outs that look alike come from different tables or passages of the source. Each block holds one compound with its values, some of them ahead of it.

What was measured:
Format in all cases: physicochemical
[1] = Solubility test of compound of formula I and its salts at 37° C.; conditions: for solubility at 1 h / solubility at 24 h: thermodynamic from solid; for solubility at 1 h / solubility at 24 h / Solubility (mg/mL) (1 h) / Solubility (mg/mL) (24 h): calculated as free base; for solubility at 1 h: read-out: Solubility (mg/mL) (1 h); for solubility at 24 h: read-out: Solubility (mg/mL) (24 h); for solubility (in words): water, pH 7.4 at 37° C.
Method: The solubility of the compound of formula I and the L-tartrate, fumarate, and D-malate thereof was studied in water, SGF, FaSSIF, FeSSIF, and pH 7.4 at 37° C.
Experimental method: 30 mg (in water) or 15 mg of the sample was weighed into a 4 mL vial, then 3 mL of the medium to be tested was added thereto, and the resulting mixture was stirred continuously at 37° C. 0.5 mL of the sample was collected at 1 hour and 24 hours, respectively, and centrifuged at 12,000 rpm for 5 minutes. The supernatant was diluted to an appropriate multiple with 50% acetonitrile and its concentration was determined.
Therefore, 13 mg of the fumarate of the compound of formula I was weighed into a 25 mL volumetric flask (approximately 10 mg added to the 25 mL volumetric flask, calculated as free base), dissolved in 50% acetonitrile aqueous solution and diluted to the scale, and two samples were prepared in parallel. STD-1 was diluted to 200 μg/mL, 50 μg/mL, and 10 μg/mL with 50% acetonitrile aqueous solution. 5 μL of the sample was injected, and the standard curve was plotted.

[2] = Hygroscopicity (dynamic vapor sorption classification)
Method: Approximately 10 mg of the sample was weighed at 25° C. under a 0% to 95% to 0% relative humidity (RH) cycle for testing the moisture absorption/desorption characteristics.

[3] = Stability test of mono-L-tartrate, fumarate and D-malate (related substances by HPLC); conditions: for Purity (HPLC): in % (unit assumed); for chemical stability: after accelerated high humidity and high temperature testing
Method: The stability of the mono-L-tartrate, fumarate, and D-malate of the compound of formula I obtained in examples 1 to 3 was studied. […]
Detection of related substances: Approximately 5 mg of the sample was weighed into a 40 mL sample vial, dissolved in 10 mL of 50% acetonitrile aqueous solution and diluted to the scale, and 5 μL of the sample was injected.

[4] = Stability study on crystal form A (related substances by HPLC, crystal form by XRPD)
Method: Detection method of stability sample related substances: Approximately 5 mg of the sample was weighed, added with 5 mL of 20% methanol, ultrasonicated for a few seconds so that the compound can be completely dissolved, and 5 μL of the sample was injected for testing of related substances.

[5] = pH 7.4 medium, aqueous buffer, pH 7.4, 37° C.
[6] = simulated gastric fluid, SGF, 37° C.

SMILES: O=C(c1ccc(N[C@@H]2CCc3ncccc32)nc1)N1CCC2(CCOCC2)C1 [Compound of formula I]
Final pH ([1]; FaSSIF, 37° C.): 6.38 | Sample appearance ([1]; FaSSIF, 37° C.): Clarified solution | Final pH ([1]; FeSSIF, 37° C.): 4.99 | Sample appearance ([1]; FeSSIF, 37° C.): Clarified solution | Final pH ([1]; SGF, 37° C.): 1.37 | Sample appearance ([1]; SGF, 37° C.): Clarified solution | Final pH ([1]; Water, 37° C.): 7.32 | Sample appearance ([1]; Water, 37° C.): Clarified solution | Final pH ([1]; pH 7.4, 37° C.): 7.56 | Sample appearance ([1]; pH 7.4, 37° C.): Clarified solution | solubility at 1 h [1, 5]: 5.11 mg/mL | solubility at 24 h [1, 5]: 5.2 mg/mL | solubility at 1 h [1, 6]: 5.23 mg/mL | solubility at 24 h [1, 6]: 5.39 mg/mL | solubility at 1 h ([1]; FaSSIF, 37° C.): 5.1 mg/mL | solubility at 24 h ([1]; FaSSIF, 37° C.): 5.22 mg/mL | solubility at 1 h ([1]; FeSSIF, 37° C.): 5.46 mg/mL | solubility at 24 h ([1]; FeSSIF, 37° C.): 5.33 mg/mL | solubility at 1 h ([1]; Water, 37° C.): 10.6 mg/mL | solubility at 24 h ([1]; Water, 37° C.): 10.8 mg/mL | solubility (in words) ([1]; SGF, FaSSIF, FeSSIF): good solubility | hygroscopicity [2]: highly hygroscopic

SMILES: O=C(O)CC(O)C(=O)O.O=C(c1cnc(NC2CCc3ncccc32)nc1)N1CCC2(CCOCC2)C1 [D-malate of compound of formula I]
Total impurities % ([3]; 40° C./75% RH-closed-20 d): 0.09% | Purity (HPLC) ([3]; 40° C./75% RH-closed-20 d): 99.91 | Total impurities % ([3]; 40° C./75% RH-open-20 d): 0.10% | Purity (HPLC) ([3]; 40° C./75% RH-open-20 d): 99.90 | Total impurities % ([3]; 60° C.-open-20 d): 0.18% | Purity (HPLC) ([3]; 60° C.-open-20 d): 99.82 | Total impurities % ([3]; Initial): 0.11% | Purity (HPLC) ([3]; Initial): 99.89 | chemical stability [3]: good chemical stability | Sample appearance ([1]; FaSSIF, 37° C.): Clarified solution | Solubility (mg/mL) (1 h) ([1]; FaSSIF, 37° C.): 5.26 mg/mL | Solubility (mg/mL) (24 h) ([1]; FaSSIF, 37° C.): 5.36 mg/mL | Sample appearance ([1]; FeSSIF, 37° C.): Clarified solution | Solubility (mg/mL) (1 h) ([1]; FeSSIF, 37° C.): 5.31 mg/mL | Solubility (mg/mL) (24 h) ([1]; FeSSIF, 37° C.): 5.28 mg/mL | Sample appearance ([1]; SGF, 37° C.): Clarified solution | Solubility (mg/mL) (1 h) ([1]; SGF, 37° C.): 5.36 mg/mL | Solubility (mg/mL) (24 h) ([1]; SGF, 37° C.): 5.37 mg/mL | Final pH ([1]; Water, 37° C.): 3.75 | Sample appearance ([1]; Water, 37° C.): Clarified solution | Solubility (mg/mL) (1 h) ([1]; Water, 37° C.): 10.60 mg/mL | Solubility (mg/mL) (24 h) ([1]; Water, 37° C.): 10.76 mg/mL | Sample appearance ([1]; pH 7.4, 37° C.): Clarified solution | Solubility (mg/mL) (1 h) ([1]; pH 7.4, 37° C.): 5.54 mg/mL | Solubility (mg/mL) (24 h) ([1]; pH 7.4, 37° C.): 5.53 mg/mL | solubility (in words) ([1]; SGF, FaSSIF, FeSSIF): good solubility

SMILES: O=C(O)C=CC(=O)O.O=C(c1cnc(NC2CCc3ncccc32)nc1)N1CCC2(CCOCC2)C1 (centres unmarked) [Fumarate of compound of formula I]
Total impurities % ([3]; 40° C./75% RH-closed-2 wks): 0.30% | Purity (HPLC) ([3]; 40° C./75% RH-closed-2 wks): 99.70 | Total impurities % ([3]; 40° C./75% RH-open-2 wks): 0.31% | Purity (HPLC) ([3]; 40° C./75% RH-open-2 wks): 99.69 | Total impurities % ([3]; 60° C.-open-2 wks): 0.32% | Purity (HPLC) ([3]; 60° C.-open-2 wks): 99.68 | Total impurities % ([3]; Initial): 0.31% | Purity (HPLC) ([3]; Initial): 99.69 | chemical stability [3]: good chemical stability | Sample appearance ([1]; FaSSIF, 37° C.): Clarified solution | Solubility (mg/mL) (1 h) ([1]; FaSSIF, 37° C.): 5.44 mg/mL | Solubility (mg/mL) (24 h) ([1]; FaSSIF, 37° C.): 5.57 mg/mL | Sample appearance ([1]; FeSSIF, 37° C.): Clarified solution | Solubility (mg/mL) (1 h) ([1]; FeSSIF, 37° C.): 5.75 mg/mL | Solubility (mg/mL) (24 h) ([1]; FeSSIF, 37° C.): 5.63 mg/mL | Sample appearance ([1]; SGF, 37° C.): Clarified solution | Solubility (mg/mL) (1 h) ([1]; SGF, 37° C.): 5.37 mg/mL | Solubility (mg/mL) (24 h) ([1]; SGF, 37° C.): 5.46 mg/mL | Final pH ([1]; Water, 37° C.): 3.32 | Sample appearance ([1]; Water, 37° C.): Clarified solution | Solubility (mg/mL) (1 h) ([1]; Water, 37° C.): 11.05 mg/mL | Solubility (mg/mL) (24 h) ([1]; Water, 37° C.): 11.37 mg/mL | Sample appearance ([1]; pH 7.4, 37° C.): Clarified solution | Solubility (mg/mL) (1 h) ([1]; pH 7.4, 37° C.): 5.65 mg/mL | Solubility (mg/mL) (24 h) ([1]; pH 7.4, 37° C.): 5.61 mg/mL | solubility (in words) ([1]; SGF, FaSSIF, FeSSIF): good solubility

Next, values leading:

Total impurities % ([3]; 40° C./75% RH-closed-2 wks): 0.06% | Purity (HPLC) ([3]; 40° C./75% RH-closed-2 wks): 99.94 | Total impurities % ([3]; 40° C./75% RH-open-2 wks): 0.10% | Purity (HPLC) ([3]; 40° C./75% RH-open-2 wks): 99.90 | Total impurities % ([3]; 60° C.-open-2 wks): 0.08% | Purity (HPLC) ([3]; 60° C.-open-2 wks): 99.92 | Total impurities % ([3]; Initial): 0.06% | Purity (HPLC) ([3]; Initial): 99.94 | chemical stability [3]: good chemical stability | Final pH ([1]; FaSSIF, 37° C.): 3.84 | Sample appearance ([1]; FaSSIF, 37° C.): Clarified solution | Sample appearance ([1]; FeSSIF, 37° C.): Clarified solution | Sample appearance ([1]; SGF, 37° C.): Clarified solution | Final pH ([1]; Water, 37° C.): 3.21 | Sample appearance ([1]; Water, 37° C.): Clarified solution | Sample appearance ([1]; pH 7.4, 37° C.): Clarified solution | solubility at 1 h [1, 5]: 5.09 mg/mL | solubility at 24 h [1, 5]: 4.97 mg/mL | solubility at 1 h [1, 6]: 5.19 mg/mL | solubility at 24 h [1, 6]: 5.25 mg/mL | solubility at 1 h ([1]; FaSSIF, 37° C.): 5.08 mg/mL | solubility at 24 h ([1]; FaSSIF, 37° C.): 5.12 mg/mL | solubility at 1 h ([1]; FeSSIF, 37° C.): 5.12 mg/mL | solubility at 24 h ([1]; FeSSIF, 37° C.): 5.02 mg/mL | solubility at 1 h ([1]; Water, 37° C.): 10.3 mg/mL | solubility at 24 h ([1]; Water, 37° C.): 10.5 mg/mL | solubility (in words) ([1]; SGF, FaSSIF, FeSSIF): good solubility
SMILES: O=C(c1cnc(N[C@@H]2CCc3ncccc32)nc1)N1CCC2(CCOCC2)C1 [Mono-L-tartrate of compound of formula I]

Individual impurities % ([4]; 40° C./75% RH-closed-2 wks): 0.04% | Purity % ([4]; 40° C./75% RH-closed-2 wks): 99.92% | Total impurities % ([4]; 40° C./75% RH-closed-2 wks): 0.08% | Individual impurities % ([4]; 40° C./75% RH-open-2 wks): 0.06% | Purity % ([4]; 40° C./75% RH-open-2 wks): 99.89% | Total impurities % ([4]; 40° C./75% RH-open-2 wks): 0.11% | Individual impurities % ([4]; 60° C.-open-2 wks): 0.06% | Purity % ([4]; 60° C.-open-2 wks): 99.87% | Total impurities % ([4]; 60° C.-open-2 wks): 0.13% | Individual impurities % ([4]; 80% RH-open-2 wks): 0.05% | Purity % ([4]; 80% RH-open-2 wks): 99.90% | Total impurities % ([4]; 80% RH-open-2 wks): 0.10% | Individual impurities % ([4]; 92.5% RH-open-2 wks): 0.06% | Purity % ([4]; 92.5% RH-open-2 wks): 99.89% | Total impurities % ([4]; 92.5% RH-open-2 wks): 0.11% | Individual impurities % ([4]; Initial): 0.04% | Purity % ([4]; Initial): 99.92% | Total impurities % ([4]; Initial): 0.08% | change of crystal form ([4]; at 60° C. under high humidity conditions of 80% RH): has not changed | crystal form obtained after exposure ([4]; exposed to 92.5% RH for 3 days): crystal form B | stability (in words) ([4]; high temperature and high humidity conditions): good stability
SMILES: O=C(O)C(O)C(O)C(=O)O.O=C(c1cnc(NC2CCc3ncccc32)nc1)N1CCC2(CCOCC2)C1 (centres unmarked) [crystal form A]
